Experimental data taken from patent US6783966B1 (priority 2000, dated 2004).

Biological target: T1, α1,4 Gal-T (Homo sapiens, UniProt Q9NPC4)
T1 sequence (Q9NPC4 1-353): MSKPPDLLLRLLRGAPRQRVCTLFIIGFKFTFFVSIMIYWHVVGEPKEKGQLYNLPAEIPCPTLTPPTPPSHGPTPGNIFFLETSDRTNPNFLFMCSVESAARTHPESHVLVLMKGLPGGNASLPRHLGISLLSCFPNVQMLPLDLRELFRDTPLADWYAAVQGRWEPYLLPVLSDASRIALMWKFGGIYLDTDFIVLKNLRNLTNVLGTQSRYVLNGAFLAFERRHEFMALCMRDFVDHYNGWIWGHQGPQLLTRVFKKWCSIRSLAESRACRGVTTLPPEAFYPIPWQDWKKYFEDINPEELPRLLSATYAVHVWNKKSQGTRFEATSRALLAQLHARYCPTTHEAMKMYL
Experiment: Enzyme assay of α1,4 Gal-T in membrane fraction of transfected L cells
Details: for Km: acceptor substrate of α1,4 Gal-T, donor UDP-Gal; for significant levels of [14C] galactose incorporation (acceptor): potential acceptors, FIG. 4B
Description: The enzyme activity of α1,4 Gal-T in the membrane fraction was measured as descibed previously(ref.4). The reaction mixture for the assay contained the following in a volume of 50 μl:50 mM sodium cacodylate-HCl (pH 6.0), 10 mM MgCl2, 5 mM galactonolactone (Sigma), 0.3% Triton X-100 (Sigma), 0.4 mM (LacCer), 2.9 mM phosphatidylglycerol (Sigma), 0.2 mM UDP-Gal (Sigma), UDP-[^14C] Gal (2.5×10^5 dpm) (NEN), and membrane fraction containing 50 μg protein. The protein concentration was determined by Lowry's methods(ref.20). The products was isolated by a C18 Sep-Pak cartridge (Waters, Milford, Mass.) and analyzed by thin layer chromatography (TLC) and autoradiography using a Bio-Imaging Analyzer BAS2000 (Fuji Film, Tokyo).
Enzyme activity toward other potential acceptors was also examined (FIG. 4B).

Substance | Km | significant levels of [14C] galactose incorporation (acceptor)
galactosylceramide | 132 µM | significant levels
lactosylceramide [LacCer] | 54.5 µM | significant levels
